The subject of series [1] is VPS26. The settings on record: neuronal cultures; cited from earlier work.
For series [2], the target named is T1, VPS35 (Mus musculus, UniProt Q9EQH3+Q9QZ88). Put plainly: VPS35 levels in Neuro2a cells by Western blot (screening of amino guanidine hydrazones). It counts as cell-based. More on the design: endogenous in cells; host or cells: Neuro2a. Conditions: 48 hours, compounds at 10 μM. The protocol: To functionally screen the majority of synthetized amino guanidine hydrazones of the invention and determine their effects on the retromer complex, we incubated Neuro2a cells with each synthetized molecule at the concentration of 10 μM.
The test was executed in triplicate for each tested compound of the invention, cells lysates were established after 48 hours' incubation, and levels of VPS35 were normalized on the housekeeping gene β-Actin by Western blot. We observed a preliminary SAR among the compounds.
Fold changes are calculated over normalized VPS35 levels measured in vehicle-treated cells.
Neuro2a cells were seeded on 12 wells multiwell at the concentration of 100 000 cells/well. Cells were incubated with each compound, including the standard R55, at 10 μM for 48 hours. Cells were then washed in PBS 1× and lysed in a buffer containing Tris-HCl 10 mM pH8, EDTA 1 mM pH8, NaCl 100 mM, NP40 1%, with protease inhibitor cocktail (Sigma) 1×. Using a cell scraper total lysates were collected from each well, quantified with BCA (BCA protein assay, Thermofisher). Five μg were resolved on precast 10% acrylamide gel (Biorad). Proteins were transferred to a PVDF membrane (Millipore) and western blot were performed using the following antibodies: goat αVPS35 (1:1000), mouse α-βActin (1:10000). Detection of proteins was obtained by a chemiluminescence detection kit (PerkinElmer).
A general note: A western blot detects proteins with antibodies after separation by electrophoresis.

The target of series [3] is VPS35 (Homo sapiens, UniProt Q96QK1+Q9UBQ0). More on the design: host or cells: neuronal cultures. The settings on record: neuronal cultures; cited from earlier work.
Series [4] deals with T1, VPS35. The experiment in a line: VPS35 levels in spinal cord extracts of C57BL6J mice by western blot. The settings on record: 10 mg/kg daily intraperitoneal for 7 days. The series is classed as in vivo. More on the design: Lumbar spinal cords were dissected from saline perfused mice and rapidly homogenized; from tissue; host or cells: lumbar spinal cord of mice. How it is done: We next asked whether the compound 2a can cross the blood brain barrier (BBB) of the brain. We run a pharmacokinetic assay on C57BL6J mice that received daily intraperitoneal injections of compound 2a (10 mg/Kg/day). Mice were sacrificed after 1, 7, 15 and 30 days saline perfused to avoid the CNS contamination of compounds contained in blood circulation and brains used for the determination of compound 2a levels by mass spectrometry. […] We next investigated in vivo if the retromer stabilization occurs in response to Compound 2a treatment. We intraperitoneally injected R55 and Compound 2a in adult C57BL6J mice as above described. After one week, mice were sacrificed, proteins extracts were assayed by western blot.
Lumbar spinal cords were dissected from saline perfused mice and rapidly homogenized in the following lysis buffer: Tris-HCl 10 mM pH 8, EDTA pH 8 1 mM, NaCl 100 mM, NP40 1% and protease inhibitor cocktail (Sigma). Protein extracts were obtained using a tight-fitting glass Potter tissue grinder (1 ml; Wheaton) and then sonicated at a frequency of 20 kHz (10 times-1s). […] Protein concentrations were measured by BCA protein assay kit (Thermofisher) according to the manufacturer's recommendations. […] Quantifications were done using the Image Lab 6.0.1 software (Bio-Rad).

Series [5] concerns the target CMC (Homo sapiens, UniProt Q96QK1+Q9UBQ0). Conditions: in vitro; cited from earlier work.
Series [6] deals with Aβ42. The settings on record: wild type and APP-mutated hippocampal neurons; cited from earlier work.
For series [7], the system named is Aβ40. Conditions: wild type and APP-mutated hippocampal neurons; cited from earlier work.
In series [8] the test system is neuronal cultures. The settings on record: cited from earlier work.

As for `N=C(N)SCc1ccc(CSC(=N)N)s1` [Compound R55], the VPS26 levels result in series [1] is given as “≈ 150%”. Also, the “VPS35 levels (in words)” value in series [2] was “efficiently and dose-dependently increased VPS35 levels”. Besides, in series [3], the VPS35 levels result is on record as “≈ 180%”. Further, in series [4], the “VPS35 levels in SC extracts (ratio versus vehicle-treated mice)” value was “did not increase VPS35 levels”. Also, in series [5], the “increase in denaturation temperature” value is “≈ 10 °C”. For the same molecule, the “reduction of Aβ42 levels” value in series [6] is on record as “up to 39%”. In addition, the “reduction of Aβ40 levels” value in series [7] is given as “up to 44%”. Further, the “not toxic up to (concentration)” value in series [8] is “up to 50 μM”.

The values are drawn from US20220213030A1, “AMINOGUANIDINE HYDRAZONES AS RETROMER STABILIZERS USEFUL FOR TREATING NEUROLOGICAL DISEASES” (OSPEDALE SAN RAFFAELE SRL, priority 2019, published 2022).
